# Read-outs that look alike come from different tables or passages of the source.
# Assays:
# HPA-axis activity = test system: HPA-axis activity; parameters: method as in Kroon et al. 2018; details: ref Kroon et al. 2018; cited from earlier work
# GR = details: ref Kroon et al. 2018; cited from earlier work
# GR activity in the brain = test: In situ hybridization of Gilz mRNA, Fkbp5 hnRNA, Nr3c1 and Nr3c2 in hippocampus and PVN; format: in vivo, C57Bl/6J mice
# Protocol: (§1) All studies involving animals were approved by the institutional ethics committee on animal care and experimentation at the Leiden University Medical Center. The 8-week old male C57Bl/6J mice (Charles River) were housed in ventilated cages with a 12 h light:12 h darkness regime and ad libitum access to food and water. In the acute corticosterone exposure experiments, mice received a synthetic chow diet (Research Diets, New Brunswick, NJ, USA) containing vehicle or CORT125281 (6, 20 or 60 mg/kg/day, Corcept Therapeutics, Menlo Park, CA, USA) for 6 days. […] Mice were treated daily with vehicle, 60 mg/kg mifepristone (Corcept Therapeutics) or 60 mg/kg CORT125281 (dissolved in PBS with 0.1% Tween 80 and 0.5% hydroxypropylmethylcellullose, Corcept Therapeutics) via oral gavage for 5 days, after which mice were killed by CO2 inhalation. Throughout the experiment, body weight was monitored and body composition was determined with EchoMRI™ (Frankfurt, Germany). After 5 days, blood was collected from the lateral tail vain in paraoxon-coated capillaries after a 6-h fast. Plasma triglyceride, total cholesterol, free fatty acid, glucose and insulin levels were determined using commercially available kits (Roche; Instruchemie, Delfzijl, Netherlands and Crystal Chem, Zaandam, Netherlands). Blood concentrations of the major leukocyte classes, that is, lymphocytes, monocytes and eosinophils, were determined in whole blood using an automatic veterinary hematology analysis (Sysmex XT-2000iV; Goffin Meyvis, Etten-Leur, the Netherlands).
# For dual label in situ hybridization, frozen unfixed pituitaries were embedded in tissue-tek OCT (Sakura Finetek, Alphen aan den Rijn, Netherlands), sliced (12 µm) and collected on glass slides (Superfrost Plus, Thermo Fisher Scientific). Dual label in situ hybridization was performed using the QuantiGene ViewRNA ISH Tissue 2-Plex Assay (Thermo Fisher Scientific) and pictures were captured with a wide-field microscope (DM6B, Leica Microsystems). For 4-plex in situ hybridization, frozen, unfixed brain slices (12 µm) were collected on glass slides at bregma −0.772 mm (PVN) and −1.532 mm (hippocampus). 4-plex in situ hybridization was performed using the RNAScope fluorescent multiplex assay and RNAscope 4-plex ancillary kit (Advanced Cell Diagnostics, Newark, CA, USA) and Opal fluorophores 520, 570, 620 and 690 (PerkinElmer). Pictures were captured with a confocal microscope (SP8 WLL, Leica Microsystems). All pictures were analysed with ImageJ Software (NIH).
# [1] = Quantification of serum and tissue CORT125281 concentration by LC-MS; format: in vivo, C57Bl/6J mice; details: male, C57Bl/6J, mouse, oral, 60 mg/kg/day for 6 days, mice
# Protocol: as §1
# Compound levels were assessed against standard curves for CORT125281, ranging from 0.05–20 µM in each tissue. Tissues were weighed and water was added at three-fold the weight of each individual sample before homogenising. Internal standard (90 µL of 1 µM leucine enkephalin in acetonitrile) was added to all samples, standard curves and quality control spikes of CORT125281. After centrifugation, a fixed volume of supernatant was removed and pellets were dissolved in water. The samples were then analysed by LC-MS utilising a QTRAP 5500 mass spectrometer (Sciex, Warrington, UK), UPLC (Agilent) instrument, equipped with a C18 Cortecs UPLC analytical column (2.1 × 30 mm, […]). […] The gradient started with a mobile phase composition of 5% B which was held for 0.1 min. The percentage of B was then linearly ramped to 95% over 0.1 to 1.2 min and then held constant up to 1.3 min. […] The mass spectrometer was set to operate in negative ion mode. The ion source temperature was 650°C, the ion spray voltage was −4000 V, gases 1, 2 and curtain gas were 30 V, 60 V and 35 V, respectively, and the entrance and collisition exit potential were −10 V and −13 V. The collision energy and declustering potential used for the multiple reaction monitoring (MRM) transitions of CORT125281 were −28 V and −60 V, the Q1 and Q3 masses were 588.649 Da and 248.800 Da, while the collision energy and declustering potential for the internal standard were −40 V and 0 V and the Q1 and Q3 masses 554.2 Da and 235.9 Da.
# [2] = molecular target: T1, human GR ligand-binding domain (Homo sapiens, UniProt P04150); test: MARCoNI peptide interaction profiling (coregulator-nuclear receptor interaction); format: biochemical; details: CORT125281 1 µM
# T1 construct: purchased Invitrogen PV4689
# T1 sequence (P04150 524-758 limits assumed): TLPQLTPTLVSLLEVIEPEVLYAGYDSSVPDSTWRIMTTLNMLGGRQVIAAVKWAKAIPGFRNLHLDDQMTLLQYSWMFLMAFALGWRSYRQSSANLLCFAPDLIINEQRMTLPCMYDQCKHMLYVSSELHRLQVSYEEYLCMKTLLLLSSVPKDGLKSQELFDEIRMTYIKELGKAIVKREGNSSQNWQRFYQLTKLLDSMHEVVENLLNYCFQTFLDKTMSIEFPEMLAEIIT
# Protocol: As the assay utilizes human GR, experiments were performed with cortisol rather than corticosterone. […] Incubation was performed at 20°C in a PamStation96 (PamGene International, Den Bosch, Netherlands) for 40 min. Receptor binding to each peptide on the array, reflected by a fluorescent signal, was quantified by analysis of .tiff images using BioNavigator software (PamGene International).
# [3] = test system: GR transcriptional activity; test: Subchronic corticosterone exposure: RT-qPCR of GR and insulin target genes in tissues; format: in vivo, C57Bl/6J mice; details: corticosterone pellet 5 days, 60 mg/kg/day oral gavage
# Protocol: as §1
# In both acute and subchronic corticosterone experiments, relevant tissues (including quadriceps muscle, interscapular BAT, gonadal white adipose tissue (WAT), adrenals, spleen, thymus, pituitary and hippocampus) were collected to determine tissue weight and/or for further molecular analysis.
# Total RNA was isolated from snap-frozen tissues using TriPure isolation reagent (Roche). After reverse transcription to cDNA (Promega), RT-qPCR was performed using IQ SYBR-Green supermix and MyIQ thermal cycler (Bio-RAD CFX96). Primers were tested for high efficiency (90–110%) and for amplification of a single PCR product. All primer sequences are listed in Supplementary Table 1 (see section on supplementary materials given at the end of this article), with the exception of Ncor1 and Ncor2 which were purchased from Qiagen. Fold change expression was calculated using the 2^−ΔΔ^CT method.
# [4] = 20 mg/kg/day CORT125281 6 days, corticosterone injection 1 h
structure (smiles),measurement,setting,value
Cn1ncc(S(=O)(=O)N2CC[C@H]3Cc4c(cnn4-c4ccc(F)cc4)C[C@]3(C(=O)c3cc(C(F)(F)F)ccn3)C2)n1 [CORT125281],diurnal corticosterone rhythm flattened by high-fat diet,HPA-axis activity,restored
same,partial agonism at GR in reporter assays,GR,very low partial agonism
same,Nr3c1 (Gr) mRNA levels in the hippocampus,GR activity in the brain; [4],Neither corticosterone nor CORT125281 affected
same,Nr3c1 or Nr3c2 expression in the PVN,GR activity in the brain; [4],Neither corticosterone nor CORT125281 affected
same,basal mineralocorticoid receptor (MR; Nr3c2) mRNA expression in the hippocampus,GR activity in the brain; 6-20 mg/kg/day,increased
same,corticosterone-induced Fkbp5 hnRNA and Gilz mRNA levels in the PVN,GR activity in the brain; 6-20 mg/kg/day,had little effect
same,corticosterone induction of Gilz mRNA and Fkbp5 hnRNA in hippocampal subfields,"GR activity in the brain; 6-20 mg/kg/day, corticosterone 1 h before tissue collection",did not prevent this induction
same,basal levels of Fkbp5 hnRNA in CA2 and CA3 regions,"GR activity in the brain; 6-20 mg/kg/day, hippocampus",upregulated
same,Kp at 6 days,"[1]; BAT (brown adipose tissue) relative to plasma, read-out: tissue to plasma ratio, BAT",19.1
same,concentration at 6 days,"[1]; BAT (brown adipose tissue), BAT, read-out: CORT125281 level, BAT",4720 ng/g
same,Kp at 6 days,"[1]; WAT (white adipose tissue) relative to plasma, read-out: tissue to plasma ratio, WAT",46.7
same,Kp at 6 days,"[1]; brain (neocortex) relative to plasma, neocortex, read-out: tissue to plasma ratio, brain",1.8
same,concentration at 6 days,"[1]; gonadal WAT (white adipose tissue), gonadal WAT, read-out: CORT125281 level, WAT",12500 ng/g
same,Kp at 6 days,"[1]; liver relative to plasma, read-out: tissue to plasma ratio, liver",8
same,concentration at 6 days,"[1]; brain neocortex, read-out: CORT125281 level, brain",542 ng/g
same,concentration at 6 days,"[1]; liver, read-out: CORT125281 level, liver",2040 ng/g
same,concentration at 6 days,"[1]; plasma, read-out: CORT125281 level, plasma",419 ng/g
same,hierarchal clustering of ligand-induced GR-coregulator response profile,[2],clustered with that of mifepristone
same,number of coregulator motifs recruited compared to mifepristone,[2],tended to recruit fewer motifs
same,binding of corepressor motifs of NCOR1 and NCOR2 (SMRT) by ligand-GR complex,[2]; mifepristone 0.1 µM,only very modestly
same,"expression of insulin target genes G6p and Pepck in liver, Glut4 and Lpl in WAT, Glut4 and Gsk3b in muscle",[3],did not affect
same,"corticosterone-induced expression of GR target genes (Fkbp5, Gilz, Sgk1, Mt2a)","[3]; liver, muscle, BAT, WAT, hippocampus",did not prevent

# Reference: publication PMC7274539, “The selective glucocorticoid receptor antagonist CORT125281 has tissue-specific activity” (The Journal of Endocrinology, 2020)
